According to paper PMC6353801, “Enhanced Anti-diabetic Effect of Berberine Combined With Timosaponin B2 in Goto-Kakizaki Rats, Associated With Increased Variety and Exposure of Effective Substances Through Intestinal Absorption” (Frontiers in Pharmacology, 2019):

Columns and labels:
[1] = PK in systemic plasma of GK rats after repeated oral administration (day 35); assay type: in vivo, rat; settings: GK rats, systemic plasma; for Cmax / half-life / Tmax / AUC: male, GK, rat, po, mean ± SE, n = 8; for Cmax / half-life / Tmax: plasma; for half-life: read-out: T1/2 (converted); for Tmax: read-out: Tmax; for AUC: read-out: AUC
Protocol: Analyses were performed on a Shimadzu LCMS-8030 triple quadrupole system (Shimadzu Corp., Japan) equipped with an electrospray ionization source. Data processing was performed using Shimadzu LC–MS LabSolutions (version 5.42 SP4, Shimadzu, Japan). Chromatographic separation was carried out on a Waters CORTECS C18+ column (100 mm × 2.1 mm, 2.7 μm, Ireland) with a security guard C18+ column (5 mm × 2.1 mm, 2.7 μm, Ireland). […] The gradient elution was 85% B from 0 to 2.5 min, 85% B–83% B from 2.5 to 3.0 min, 83% B from 3.0 to 6.0 min, 83% B–40% B from 6.0 to 6.5 min, 40% B from 6.5 to 7.0 min, 40% B–85% B from 7.0 to 7.2 min, and 85% B from 7.2 to 12 min. […] The optimized precursor-to-product ion pairs (collision energy) were in the positive mode as follows: m/z 579.20–255.15 (28 V) for TB-2 (at 4.1 min) and timosaponin A3 (at 6.1 min) and 271.50–154.70 (25 V) for tolbutamide (IS, at 5.8 min). […] If the concentrations of the compounds were over the linear range, the relevant samples were diluted with blank matrix by a factor of 10. […] Four-week-old male GK rats were fed a high-fat diet, and age-matched non-diabetic Wistar rats were fed standard chow as the control group. Under these dietary conditions, blood glucose was estimated each week for 7 weeks in 12-h fasted rats using a portable glucometer (One Touch Sure Step Meter, Johnson & Johnson, United States) by drawing the blood from the tail vein. GK rats with fasting blood glucose levels (FBG) above 16.7 mM were considered as diabetic rats, and only uniformly diabetic rats were used in this study. […] All the drugs were suspended in 0.5% carboxymethylcellulose sodium (CMC-Na) solution for oral gavage (10 ml/kg) once per day (at 9:00) for 6 weeks. Simultaneously, the Wistar and vehicle groups received vehicle over the treatment period. Food consumption and body weight were measured every week throughout the experimental periods. Non-fasting blood glucose (NFBG) levels were determined by collecting blood samples from the tail vein (at 9:00), and FBG levels were determined after a 6-h fast (at 15:00) on days 0, 7, 14, 21, and 42. On day 28, an oral glucose tolerance test (OGTT) was performed after an overnight fast. […] On day 42, the rats were anesthetized with urethane (1.4 g/kg, dissolved in saline) after an overnight fast and were sacrificed to collect the liver, kidney, heart, and spleen. The organs were weighed after washing with saline and drying to calculate the organ coefficient, namely, the ratio between the weight of organs and the body in each rat. The liver samples were diluted with 3 volumes (0.5 g/1.5 ml) of saline and homogenized. The liver homogenates and plasma samples (100 μl) were precipitated with three volumes of acetonitrile (containing 10 μg/ml tolbutamide). […] Then, 100 μl of the original mobile phase was added, and the samples were vortexed for 5 min and centrifuged at 13,000 rpm at 4°C for 10 min. Finally, the supernatant was used for HPLC–QQQ–MS/MS analysis. A non-compartmental analysis was performed using WinNonlin software (Pharsight 6.2, Raleigh, NC, United States) to calculate the PK parameters. The significance of PK parameters in normal rats, generated by the sparse method in WinNonlin, was assessed with Welch’s unequal variances t-test. The significance of the other results was assessed using two-tailed Student’s t-tests. Statistical significance was defined as P < 0.05.

[2] = PK in portal vein plasma of Wistar rats (before hepatic clearance); settings: for AUC / Cmax / Tmax / half-life: male, Wistar, rat, po
[3] = PK in systemic plasma of Wistar rats (after hepatic clearance) and liver extraction ratio; settings: for ERliver (liver extraction ratio): (AUCpor−AUCsys)/AUCpor; for Tmax: n = 5
[4] = Liver distribution in Wistar rats; settings: for AUC ± SE / Cmax / half-life / Tmax: n = 5; for Cmax / half-life / Tmax: male, Wistar, rat, po; for Cmax: Cmax ± SE; for half-life: T1/2, Wistar rats
GK rats = test: Oral glucose tolerance test (OGTT) in GK rats on day 28; assay type: in vivo, rat; settings: after 4 weeks of treatment, glucose 2 g/kg oral
Protocol: Four-week-old male GK rats were fed a high-fat diet, and age-matched non-diabetic Wistar rats were fed standard chow as the control group. Under these dietary conditions, blood glucose was estimated each week for 7 weeks in 12-h fasted rats using a portable glucometer (One Touch Sure Step Meter, Johnson & Johnson, United States) by drawing the blood from the tail vein. GK rats with fasting blood glucose levels (FBG) above 16.7 mM were considered as diabetic rats, and only uniformly diabetic rats were used in this study. […] All the drugs were suspended in 0.5% carboxymethylcellulose sodium (CMC-Na) solution for oral gavage (10 ml/kg) once per day (at 9:00) for 6 weeks. Simultaneously, the Wistar and vehicle groups received vehicle over the treatment period. Food consumption and body weight were measured every week throughout the experimental periods. Non-fasting blood glucose (NFBG) levels were determined by collecting blood samples from the tail vein (at 9:00), and FBG levels were determined after a 6-h fast (at 15:00) on days 0, 7, 14, 21, and 42. On day 28, an oral glucose tolerance test (OGTT) was performed after an overnight fast. […] On day 42, the rats were anesthetized with urethane (1.4 g/kg, dissolved in saline) after an overnight fast and were sacrificed to collect the liver, kidney, heart, and spleen. The organs were weighed after washing with saline and drying to calculate the organ coefficient, namely, the ratio between the weight of organs and the body in each rat.

[5] = 33.3 mg/kg, day 35, oral BBR+TB-2 (66.7+33.3 mg/kg)
[6] = 66.7 mg/kg, day 35, oral BBR 66.7 mg/kg alone
[7] = male, Wistar, rat, systemic plasma, po, 66.7 mg/kg
[8] = male, Wistar, rat, systemic plasma, po, 100 mg/kg
[9] = liver, 33.3 mg/kg, Wistar rats, liver, single oral BBR+TB-2 (66.7+33.3 mg/kg)
[10] = liver, 66.7 mg/kg, Wistar rats, single oral BBR 66.7 mg/kg alone

**Q.** For `COc1ccc2cc3[n+](cc2c1OC)CCc1cc2c(cc1-3)OCO2` [BBR, berberine], which “increase in AUC on combination vs single treatment” value ([1]; day 35) is on record?
**A.** Its value is 107%.

**Q.** What about the “increase in Cmax on combination vs single treatment” value ([1]; day 35) of the same compound?
**A.** Its value is 695%.

**Q.** What about the Cmax [1, 5] of the same compound?
**A.** Its Cmax is 42.2 ± 17.4 ng/mL.

**Q.** And the half-life [1, 5]?
**A.** The half-life was 9.3 ± 2.5 h.

**Q.** What about the Tmax [1, 5] of the same compound?
**A.** Its Tmax is 0.9 ± 0.1 h.

**Q.** And the Cmax [1, 6]?
**A.** Its Cmax is 5.3 ± 0.4 ng/mL.

**Q.** What about the half-life [1, 6] of the same compound?
**A.** Its half-life is 28.1 ± 11.7 h.

**Q.** And the Tmax [1, 6]?
**A.** Its Tmax is 4.6 ± 1.5 h.

**Q.** And the AUC [1, 5]?
**A.** Its AUC is 155 ± 59.7 ng·h/mL.

**Q.** What about the AUC [1, 6] of the same compound?
**A.** Its AUC is 74.8 ± 3.5 ng·h/mL.

**Q.** And the “increase in AUC on co-administration vs single treatment” value (from here on “increase in AUC on co-administration”) ([2]; Wistar rats)?
**A.** The value was 114%.

**Q.** And the AUC ([2]; 66.7 mg/kg)?
**A.** Its AUC is 198 ± 22.2 ng·h/mL.

**Q.** And the Cmax ([2]; 66.7 mg/kg)?
**A.** Its Cmax is 63.1 ± 18.5 ng/mL.

**Q.** What about the Tmax ([2]; 66.7 mg/kg) of the same compound?
**A.** Its Tmax is 2 h.

**Q.** What about the half-life ([2]; 66.7 mg/kg) of the same compound?
**A.** Its half-life is 9.8 h.

**Q.** What about the AUC ([2]; 100 mg/kg) of the same compound?
**A.** The AUC was 424 ± 60.5 ng·h/mL.

**Q.** And the Cmax ([2]; 100 mg/kg)?
**A.** The Cmax was 145 ± 50.3 ng/mL.

**Q.** What about the Tmax ([2]; 100 mg/kg) of the same compound?
**A.** Its Tmax is 2 h.

**Q.** What about the half-life ([2]; 100 mg/kg) of the same compound?
**A.** Its half-life is 10.5 h.

**Q.** And the “ERliver (liver extraction ratio)” value ([3]; Wistar rats, oral BBR 66.7 mg/kg alone)?
**A.** Its value is 87.3%.

**Q.** What about the “ERliver (liver extraction ratio)” value ([3]; Wistar rats, oral BBR+TB-2 (100 mg/kg)) of the same compound?
**A.** The value was 90.0%.

**Q.** And the “AUC in portal vein plasma, fold higher than in systemic plasma” value ([3]; Wistar rats, BBR treatments)?
**A.** Its value is 6.9 fold.

**Q.** What about the “AUC in portal vein plasma, fold higher than in systemic plasma” value ([3]; Wistar rats, TB-2+BBR treatments) of the same compound?
**A.** Its value is 9.1 fold.

**Q.** And the “AUC in portal vein plasma, fold higher than in systemic plasma (discussion)” value ([3]; Wistar rats, single or combination treatments)?
**A.** Its value is “approximately 10 fold”.

**Q.** What about the “increase in AUC on co-administration” value ([3]; Wistar rats, systemic plasma) of the same compound?
**A.** The value was “didn’t increase”.

**Q.** And the Tmax ([3]; Wistar rats, systemic plasma, single oral BBR 66.7 mg/kg alone)?
**A.** Its Tmax is 0.2 h.

**Q.** What about the Tmax ([3]; male, Wistar, rat, plasma, po, 66.7 mg/kg, Tmax, Wistar rats, systemic plasma, single oral BBR 66.7 mg/kg alone) of the same compound?
**A.** The Tmax was 0.167 h.

**Q.** What about the AUC [3, 7] of the same compound?
**A.** The AUC was 25.1 ± 4.1 ng·h/mL.

**Q.** What about the Cmax [3, 7] of the same compound?
**A.** Its Cmax is 11.1 ± 3.4 ng/mL.

**Q.** And the half-life [3, 7]?
**A.** The half-life was 1.9 h.

**Q.** What about the AUC [3, 8] of the same compound?
**A.** Its AUC is 42.1 ± 11.7 ng·h/mL.

**Q.** What about the Cmax [3, 8] of the same compound?
**A.** Its Cmax is 10.8 ± 3.9 ng/mL.

**Q.** What about the half-life [3, 8] of the same compound?
**A.** Its half-life is 2.3 h.

**Q.** What about the Tmax ([3]; male, Wistar, rat, systemic plasma, po, 100 mg/kg, Tmax, Wistar rats, systemic plasma, single oral BBR+TB-2 (100 mg/kg)) of the same compound?
**A.** Its Tmax is 2 h.

**Q.** What about the “increase in AUC on co-administration” value ([4]; Wistar rats, liver) of the same compound?
**A.** Its value is “didn’t elicit statistical significance”.

**Q.** And the “increase in Cmax on co-administration vs single treatment” value ([4]; Wistar rats, liver)?
**A.** The value was 136%.

**Q.** And the “AUC ± SE” value ([4]; Wistar rats, liver, single oral BBR 66.7 mg/kg alone)?
**A.** Its value is 3255.1 ± 247.5 h ∗ ng/g.

**Q.** What about the “AUC ± SE” value ([4]; Wistar rats, liver, single oral BBR+TB-2 (66.7+33.3 mg/kg)) of the same compound?
**A.** The value was 4600.3 ± 645.1 h ∗ ng/g.

**Q.** And the Cmax [4, 9]?
**A.** Its Cmax is 1880 ± 418 ng/g.

**Q.** And the half-life ([4]; liver, 33.3 mg/kg, liver, single oral BBR+TB-2 (66.7+33.3 mg/kg))?
**A.** Its half-life is 6.9 h.

**Q.** What about the Tmax [4, 9] of the same compound?
**A.** Its Tmax is 2 h.

**Q.** What about the Cmax [4, 10] of the same compound?
**A.** Its Cmax is 795 ± 157 ng/g.

**Q.** And the half-life ([4]; liver, 66.7 mg/kg, single oral BBR 66.7 mg/kg alone)?
**A.** Its half-life is 14.8 h.

**Q.** And the Tmax [4, 10]?
**A.** The Tmax was 2 h.

**Q.** And the “improvement of levels on co-administration” value ([4]; normal rats, in the plasma and liver)?
**A.** The value was 41–114%.

**Q.** And the “decrease in the AUC of blood glucose in OGTT vs vehicle” value (GK rats)?
**A.** Its value is “didn’t significantly decrease”.

**Q.** And the “decrease of blood glucose levels in OGTT at 30 min vs vehicle” value (GK rats)?
**A.** Its value is 24%.
